Measurements from patent publication US11377469B2, “CD73 inhibitors” (ORIC Pharmaceuticals, Inc., priority 2017, dated 2022).

Molecular target: CD73 (Homo sapiens (Human), UniProt P21589)
Experiment: Biochemical Assay (CD73 inhibition, AMP hydrolysis, Malachite Green readout)
Conditions: CD73 0.3208 nM, AMP 15 μM, Tris-HCl pH 7.4, Malachite Green absorbance

Chain of CD73 (P21589 27-574): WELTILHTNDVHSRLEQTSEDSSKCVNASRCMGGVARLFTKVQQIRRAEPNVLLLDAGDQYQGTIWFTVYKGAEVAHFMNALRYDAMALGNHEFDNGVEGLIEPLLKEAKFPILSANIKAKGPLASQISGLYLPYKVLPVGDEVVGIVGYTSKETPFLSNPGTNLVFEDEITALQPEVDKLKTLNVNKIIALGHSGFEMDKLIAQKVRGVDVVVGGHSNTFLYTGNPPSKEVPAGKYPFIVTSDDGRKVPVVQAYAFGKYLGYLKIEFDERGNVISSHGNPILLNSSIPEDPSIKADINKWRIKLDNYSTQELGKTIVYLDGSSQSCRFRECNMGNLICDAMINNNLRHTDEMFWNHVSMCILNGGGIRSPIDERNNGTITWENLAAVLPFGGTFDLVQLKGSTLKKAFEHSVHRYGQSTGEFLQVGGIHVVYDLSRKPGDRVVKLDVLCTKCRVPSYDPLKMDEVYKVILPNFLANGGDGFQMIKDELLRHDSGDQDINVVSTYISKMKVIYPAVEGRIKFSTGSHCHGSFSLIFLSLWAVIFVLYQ

Row | SMILES | IC50 [nM]
1 | O=P(O)(O)COC[C@H]1O[C@@H](n2ncc3c(N[C@@H]4CCOC4)nc(Cl)nc32)[C@H](O)[C@@H]1O [Example 80, ((((2R,3S,4R,5R)-5-(6-chloro-4-(((R)-tetrahydrofuran-3-yl)amino)-1H-pyrazolo[3,4-d]pyrimidin-1-yl)-3,4-dihydroxytetrahydrofuran-2-yl)methoxy)methyl)phosphonic acid] | ≤ 500
2 | O=P(O)(O)COC[C@H]1O[C@@H](n2ncc3c(N4CCCC4)nc(Cl)nc32)[C@H](O)[C@@H]1O [Example 81, ((((2R,3S,4R,5R)-5-(6-chloro-4-(pyrrolidin-1-yl)-1H-pyrazolo[3,4-d]pyrimidin-1-yl)-3,4-dihydroxytetrahydrofuran-2-yl)methoxy)methyl)phosphonic acid] | ≤ 500
3 | COc1nc(NCC2CC2)c2cnn([C@@H]3O[C@H](COCP(=O)(O)O)[C@@H](O)[C@H]3O)c2n1 [Example 82, ((((2R,3S,4R,5R)-5-(4-((cyclopropylmethyl)amino)-6-methoxy-1H-pyrazolo[3,4-d]pyrimidin-1-yl)-3,4-dihydroxytetrahydrofuran-2-yl)methoxy)methyl)phosphonic acid] | 500 to 1000
4 | O=P(O)(O)COC[C@H]1O[C@@H](n2ncc3c(N4CCC4)nc(Cl)nc32)[C@H](O)[C@@H]1O [Example 83, ((((2R,3S,4R,5R)-5-(4-(azetidin-1-yl)-6-chloro-1H-pyrazolo[3,4-d]pyrimidin-1-yl)-3,4-dihydroxytetrahydrofuran-2-yl)methoxy)methyl)phosphonic acid] | ≤ 500
5 | CN(CC1CC1)c1nc(Cl)nc2c1cnn2[C@@H]1O[C@H](CS(=O)(=O)CP(=O)(O)O)[C@@H](O)[C@H]1O [Example 84, (((((2S,3S,4R,5R)-5-(6-chloro-4-((cyclopropylmethyl)(methyl)amino)-1H-pyrazolo[3,4-d]pyrimidin-1-yl)-3,4-dihydroxytetrahydrofuran-2-yl)methyl)sulfonyl)methyl)phosphonic acid] | ≤ 500
6 | O=P(O)(O)COCC[C@H]1O[C@@H](n2ncc3c(NCC4CC4)nc(Cl)nc32)[C@H](O)[C@@H]1O [Example 85, ((2-((2R,3S,4R,5R)-5-(6-chloro-4-((cyclopropylmethyl)amino)-1H-pyrazolo[3,4-d]pyrimidin-1-yl)-3,4-dihydroxytetrahydrofuran-2-yl)ethoxy)methyl)phosphonic acid] | > 1000
7 | O=P(O)(O)COC[C@H]1O[C@@H](n2ncc3c(NCC4CC(F)(F)C4)nc(Cl)nc32)[C@H](O)[C@@H]1O [Example 86] | ≤ 500
8 | O=P(O)(O)COC[C@H]1O[C@@H](n2ncc3c(NC4CC(F)(F)C4)nc(Cl)nc32)[C@H](O)[C@@H]1O [Example 87, ((((2R,3S,4R,5R)-5-(6-chloro-4-((3,3-difluorocyclobutyl)amino)-1H-pyrazolo[3,4-d]pyrimidin-1-yl)-3,4-dihydroxytetrahydrofuran-2-yl)methoxy)methyl)phosphonic acid] | ≤ 500
9 | O=P(O)(O)CS(=O)(=O)CC[C@H]1O[C@@H](n2ncc3c(NCC4CC4)nc(Cl)nc32)[C@H](O)[C@@H]1O [Example 88, (((2-((2R,3S,4R,5R)-5-(6-chloro-4-((cyclopropylmethy)amino)-1H-pyrazolo[3,4-d]pyrimidin-1-yl)-3,4-dihydroxytetrahydrofuran-2-yl)ethyl)sulfonyl)methyl)phosphonic acid] | > 1000
10 | C[C@]1(O)C[C@@H](CNc2nc(Cl)nc3c2cnn3[C@@H]2O[C@H](COCP(=O)(O)O)[C@@H](O)[C@H]2O)C1 [Example 89, ((((2R,3S,4R,5R)-5-(6-chloro-4-((((1s,3S)-3-hydroxy-3-methylcyclobutyl)methyl)amino)-1H-pyrazolo[3,4-d]pyrimidin-1-yl)-3,4-dihydroxytetrahydrofuran-2-yl)methoxy)methyl)phosphonic acid] | ≤ 500
11 | O=P(O)(O)COC[C@H]1O[C@@H](n2ncc3c(NCc4ncccn4)nc(Cl)nc32)[C@H](O)[C@@H]1O [Example 90, ((((2R,3S,4R,5R)-5-(6-chloro-4-((pyrimidin-2-ylmethyl)amino)-1H-pyrazolo[3,4-d]pyrimidin-1-yl)-3,4-dihydroxytetrahydrofuran-2-yl)methoxy)methyl)phosphonic acid] | 500 to 1000
12 | C[C@H](Nc1nc(Cl)nc2c1cnn2[C@@H]1O[C@H](COCP(=O)(O)O)[C@@H](O)[C@H]1O)C1CC1 [Example 91, ((((2R,3S,4R,5R)-5-(6-chloro-4-(((S)-1-cyclopropylethyl)amino)-1H-pyrazolo[3,4-d]pyrimidin-1-yl)-3,4-dihydroxytetrahydrofuran-2-yl)methoxy)methyl)phosphonic acid] | ≤ 500
13 | C[C@@H](Nc1nc(Cl)nc2c1cnn2[C@@H]1O[C@H](COCP(=O)(O)O)[C@@H](O)[C@H]1O)C1CC1 [Example 92, ((((2R,3S,4R,5R)-5-(6-chloro-4-(((R)-1-cyclopropylethyl)amino)-1H-pyrazolo[3,4-d]pyrimidin-1-yl)-3,4-dihydroxytetrahydrofuran-2-yl)methoxy)methyl)phosphonic acid] | ≤ 500
14 | O=P(O)(O)COC[C@H]1O[C@@H](n2ncc3c(NC4CCCCC4)nc(Cl)nc32)[C@H](O)[C@@H]1O [Example 93, ((((2R,3S,4R,5R)-5-(6-chloro-4-(cyclohexylamino)-1H-pyrazolo[3,4-d]pyrimidin-1-yl)-3,4-dihydroxytetrahydrofuran-2-yl)methoxy)methyl)phosphonic acid] | ≤ 500
15 | O=P(O)(O)COC[C@H]1O[C@@H](n2ncc3c(NCCC4CC4)nc(Cl)nc32)[C@H](O)[C@@H]1O [Example 94, ((((2R,3S,4R,5R)-5-(6-chloro-4-((2-cyclopropylethyl)amino)-1H-pyrazolo[3,4-d]pyrimidin-1-yl)-3,4-dihydroxytetrahydrofuran-2-yl)methoxy)methyl)phosphonic acid] | ≤ 500
16 | O=P(O)(O)COC[C@H]1O[C@@H](n2nnc3c(NC4CCCC4)nc(Cl)nc32)[C@H](O)[C@@H]1O [Example 95, ((((2R,3S,4R,5R)-5-(5-chloro-7-(cyclopentylamino)-3H-[1,2,3]triazolo[4,5-d]pyrimidin-3-yl)-3,4-dihydroxytetrahydrofuran-2-yl)methoxy)methyl)phosphonic acid] | ≤ 500
17 | CC1(CNc2nc(Cl)nc3c2cnn3[C@@H]2O[C@H](COCP(=O)(O)O)[C@@H](O)[C@H]2O)CC1 [Example 96, ((((2R,3S,4R,5R)-5-(6-chloro-4-(((1-methylcyclopropyl)methyl)amino)-1H-pyrazolo[3,4-d]pyrimidin-1-yl)-3,4-dihydroxytetrahydrofuran-2-yl)methoxy)methyl)phosphonic acid] | ≤ 500
18 | Cc1cc2c(NCC3CC3)nc(Cl)nc2n1[C@@H]1O[C@H](COCP(=O)(O)O)[C@@H](O)[C@H]1O [Example 97, ((((2R,3S,4R,5R)-5-(2-chloro-4-((cyclopropylmethyl)amino)-6-methyl-7H-pyrrolo[2,3-d]pyrimidin-7-yl)-3,4-dihydroxytetrahydrofuran-2-yl)methoxy)methyl)phosphonic acid] | > 1000
19 | CN(C[C@H]1O[C@@H](n2ncc3c(NC4CCCC4)nc(Cl)nc32)[C@H](O)[C@@H]1O)S(=O)(=O)CP(=O)(O)O [Example 98, ((N-(((2R,3S,4R,5R)-5-(6-Chloro-4-(cyclopentylamino)-1H-pyrazolo[3,4-d]pyrimidin-1-yl)-3,4-dihydroxytetrahydrofuran-2-yl)methyl)-N-methylsulfamoyl)methyl)phosphonic acid] | ≤ 500
20 | CC(=O)N(c1nc(Cl)nc2c1cnn2[C@@H]1O[C@H](COCP(=O)(O)O)[C@@H](O)[C@H]1O)C1CCCC1 [Example 99, ((((2R,3S,4R,5R)-5-(6-Chloro-4-(N-cyclopentylacetamido)-1H-pyrazolo[3,4-d]pyrimidin-1-yl)-3,4-dihydroxytetrahydrofuran-2-yl)methoxy)methyl)phosphonic acid] | ≤ 500
21 | Cc1ccc(-c2nc(Cl)nc3c2cnn3[C@@H]2O[C@H](COCP(=O)(O)O)[C@@H](O)[C@H]2O)o1 [Example 100, ((((2R,3S,4R,5R)-5-(6-chloro-4-(5-methylfuran-2-yl)-1H-pyrazolo[3,4-d]pyrimidin-1-yl)-3,4-dihydroxytetrahydrofuran-2-yl)methoxy)methyl)phosphonic acid] | ≤ 500
22 | O=P(O)(O)CCC[C@H]1O[C@@H](n2ncc3c(NC4CCCC4)nc(Cl)nc32)[C@H](O)[C@@H]1O [Example 101, (3-((2R,3S,4R,5R)-5-(6-Chloro-4-(cyclopentylamino)-1H-pyrazolo[3,4-d]pyrimidin-1-yl)-3,4-dihydroxytetrahydrofuran-2-yl)propyl)phosphonic acid] | 500 to 1000
23 | CC1(C)CCC[C@@H]1Nc1nc(Cl)nc2c1cnn2[C@@H]1O[C@H](COCP(=O)(O)O)[C@@H](O)[C@H]1O [Example 102, ((((2R,3S,4R,5R)-5-(6-chloro-4-(((S)-2,2-dimethylcyclopentyl)amino)-1H-pyrazolo[3,4-d]pyrimidin-1-yl)-3,4-dihydroxytetrahydrofuran-2-yl)methoxy)methyl)phosphonic acid] | ≤ 500
24 | CC1(C)CCC[C@H]1Nc1nc(Cl)nc2c1cnn2[C@@H]1O[C@H](COCP(=O)(O)O)[C@@H](O)[C@H]1O [Example 103, ((((2R,3S,4R,5R)-5-(6-chloro-4-(((R)-2,2-dimethylcyclopentyl)amino)-1H-pyrazolo[3,4-d]pyrimidin-1-yl)-3,4-dihydroxytetrahydrofuran-2-yl)methoxy)methyl)phosphonic acid] | ≤ 500
25 | C[C@@H]1CCC[C@@H]1Nc1nc(Cl)nc2c1cnn2[C@@H]1O[C@H](COCP(=O)(O)O)[C@@H](O)[C@H]1O [Example 104, ((((2R,3S,4R,5R)-5-(6-chloro-4-(((1S,2R)-2-methylcyclopentyl)amino)-1H-pyrazolo[3,4-d]pyrimidin-1-yl)-3,4-dihydroxytetrahydrofuran-2-yl)methoxy)methyl)phosphonic acid] | ≤ 500
26 | C[C@H]1CCC[C@H]1Nc1nc(Cl)nc2c1cnn2[C@@H]1O[C@H](COCP(=O)(O)O)[C@@H](O)[C@H]1O [Example 105, ((((2R,3S,4R,5R)-5-(6-chloro-4-(((1R,2S)-2-methylcyclopentyl)amino)-1H-pyrazolo[3,4-d]pyrimidin-1-yl)-3,4-dihydroxytetrahydrofuran-2-yl)methoxy)methyl)phosphonic acid] | ≤ 500
